Where a name gives a salt, the structure may show the parent alone. Read-outs that look alike come from different tables or passages of the source.
Tests used:
[1] = test system: aCD3/aCD28-stimulated human PBMCs; test: Cytokine production in aCD3/aCD28 stimulated human PBMCs; type: cell-based; conditions: PBMC, 18 h
How it was run: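 Ficoll-isolated human PBMCs at 1e6 cells/mL in X-Vivo15, stimulated with soluble anti-CD3/CD28 (OKT3 and 28.2, 1 μg/mL each) plus compound for 18 h at 37° C. Supernatant cytokines quantified by MSD or HTRF.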

non-stimulated PBMCs = test: Non-stimulated PBMCs: cytokine secretion and signs of T-cell activation; type: cell-based, human
Description: This is an important finding for compounds that shall selectively act on T cells which have been activated by presence of antigen from pathogens or tumors, but shall not lead to an unwanted general activation of all T cells of a patient.

[2] = test system: aCD3/aCD28-stimulated human CD4+-T-cells; test: IL-2 production and activation markers in aCD3/aCD28 stimulated isolated human CD4+-T-cells; type: cell-based; conditions: IL-2 production at 3 μM compound
How it was run: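 CD4+ T cells isolated from buffy-coat PBMCs by microbeads were plated in Xvivo medium (1.5*10^5 cells/well) and stimulated with anti-CD3/28 mAbs plus compound. IL-2 measured by ELISA in supernatants at 24 h or 48 h; CD25 and proliferation by flow cytometry, CD69 at 24 h. Activity classes based on IL-2 at 3 μM compound.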

[3] = enhancement of IFN-γ production, read-out: Activity Class IFN-γ
[4] = enhancement of IL-2 production, read-out: Activity Class IL-2

Structure (SMILES) | EC50 [1, 3] [µM] | EC50 [1, 4] [µM] | cytokine secretion or other signs of T-cell activation (non-stimulated PBMCs) | Activity Class CD4+ [2]
N[C@H]1CS(=O)(=O)c2cc(F)c(C(=O)NC3CC3(F)F)cc2N(Cc2ccc(Cl)cc2)C1=O (stereo partly drawn) [Example 1, (3R)-3-amino-5-[(4-chlorophenyl)methyl]-N-(2,2-difluorocyclopropyl)-8-fluoro-1,1,4-trioxo-2,3,4,5-tetrahydro-1λ^6,5-benzothiazepine-7-carboxamide hydrochloride] | < 1.58 | < 1.58 | did not enhance cytokine secretion or other signs of T-cell activation | A (IL-2 production at 3 μM compound concentration >10 ng/mL)
CCCCNC(=O)c1ccc2c(c1)N(Cc1ccc(OC(F)(F)F)cc1)C(=O)[C@@H](N)CS2(=O)=O.Cl [Example 67, (3R)-3-amino-N-butyl-1,1,4-trioxo-5-{[4-(trifluoromethoxy)phenyl]methyl}-2,3,4,5-tetrahydro-1λ^6,5-benzothiazepine-7-carboxamide hydrochloride] | < 1.58 | < 1.58 | did not enhance cytokine secretion or other signs of T-cell activation | A (IL-2 production at 3 μM compound concentration >10 ng/mL)
Cl.N[C@H]1CS(=O)(=O)c2cc(F)c(C(=O)NCCCC(F)(F)F)cc2N(Cc2ccc(Cl)cc2)C1=O [Example 70, (3R)-3-amino-5-[(4-chlorophenyl)methyl]-8-fluoro-1,1,4-trioxo-N-(4,4,4-trifluoro-butyl)-2,3,4,5-tetrahydro-1λ^6,5-benzothiazepine-7-carboxamide hydrochloride] | < 1.58 | < 1.58 | – | A (IL-2 production at 3 μM compound concentration >10 ng/mL)
CC(C)NC(=O)c1cc2c(cc1F)S(=O)(=O)C[C@H](N)C(=O)N2Cc1ccc(Cl)cc1.Cl [Example 77, (3R)-3-amino-5-[(4-chlorophenyl)methyl]-8-fluoro-1,1,4-trioxo-N-(propan-2-yl)-2,3,4,5-tetrahydro-1λ^6,5-benzothiazepine-7-carboxamide hydrochloride] | 1.58 to 5.01 | 1.58 to 5.01 | did not enhance cytokine secretion or other signs of T-cell activation | C (IL-2 production at 3 μM compound concentration between 2-fold increase as compared to mean IL-2 production of stimulated cells in the absence of compounds and <2 ng/mL)

Source: patent US10472341B2, “Bicyclic tetrahydrothiazepine derivatives useful for the treatment of neoplastic and/or infectious diseases” (APEIRON BIOLOGICS AG, priority 2015, dated 2019)
